Assay results: patent US6506936B1, “N-substituted arylsulfonylamino hydroxamic acids useful as inhibitors of c-proteinase and for treating or preventing disorders related to unregulated collagen production” (FibroGen, Inc., priority 1999, dated 2003)
pIC50: −log10 of the molar value. Where two headings read alike, the source gives them in different places.

Target: T1, recombinant human C-proteinase (Homo sapiens, UniProt P13497)
T1 sequence (P13497 121-986): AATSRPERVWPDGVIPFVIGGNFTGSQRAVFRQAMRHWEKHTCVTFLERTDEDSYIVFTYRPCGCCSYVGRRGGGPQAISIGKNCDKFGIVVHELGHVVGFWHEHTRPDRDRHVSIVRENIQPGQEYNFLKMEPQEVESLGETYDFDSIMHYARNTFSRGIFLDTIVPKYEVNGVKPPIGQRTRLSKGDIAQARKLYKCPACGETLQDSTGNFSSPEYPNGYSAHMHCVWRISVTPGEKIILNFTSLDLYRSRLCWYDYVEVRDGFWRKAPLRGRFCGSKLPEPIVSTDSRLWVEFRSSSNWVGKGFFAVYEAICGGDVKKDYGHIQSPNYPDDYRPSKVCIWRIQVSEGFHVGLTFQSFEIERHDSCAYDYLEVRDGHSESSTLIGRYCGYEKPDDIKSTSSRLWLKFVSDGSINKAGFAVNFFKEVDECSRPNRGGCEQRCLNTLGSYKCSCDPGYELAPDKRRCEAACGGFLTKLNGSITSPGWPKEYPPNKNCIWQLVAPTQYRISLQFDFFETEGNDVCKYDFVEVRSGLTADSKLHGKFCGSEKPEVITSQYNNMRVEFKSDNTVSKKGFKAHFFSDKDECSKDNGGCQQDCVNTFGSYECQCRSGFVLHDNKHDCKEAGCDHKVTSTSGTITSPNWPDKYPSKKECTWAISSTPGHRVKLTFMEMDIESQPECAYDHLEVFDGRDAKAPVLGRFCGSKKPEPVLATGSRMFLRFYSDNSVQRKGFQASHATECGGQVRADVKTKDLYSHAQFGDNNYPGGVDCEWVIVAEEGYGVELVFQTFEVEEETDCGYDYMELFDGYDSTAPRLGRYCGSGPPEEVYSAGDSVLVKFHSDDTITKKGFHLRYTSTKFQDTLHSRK
Test: C-proteinase IC50 assay with fluorogenic peptide
Format: biochemical
Description: The reaction was started with the addition of 20 μl of the recombinant human C-proteinase mix. The reaction proceeded for 4 hours at 37° C. and the fluorescence was measured using a Bio-Tek Fl-600.

[1] = IC50 (μM) Of Various C-Proteinase Inhibitors
[2] = recombinant human C-proteinase, 50 μM fluorogenic peptide, 4 hours at 37° C., read-out: IC50 (μM) Of Various C-Proteinase Inhibitors

Structure (SMILES)	IC50 [2] [µM]	also measured
COc1ccc(S(=O)(=O)N(CCC(=O)NO)CCc2ccccn2)cc1 [compound 1132]		pIC50: 5.10
COc1ccc(S(=O)(=O)N(CCC(=O)NO)CCN2CCOCC2)cc1 [compound 1131]		IC50 [1]: 80.5 µM
O=C(CCN(Cc1ccc2c(c1)OCO2)S(=O)(=O)c1cccc2nsnc12)NO [compound 1362]	1.51	
COc1ccc(S(=O)(=O)N(CCC(=O)NO)Cc2ccc3c(c2)OCO3)cc1 [compound 1273]	0.63	
COc1ccc(N(CCC(=O)NO)S(=O)(=O)c2ccc(OC)cc2)cc1 [compound 208]		IC50 [1]: 1.68 µM; pIC50 (IC50 of Cpase): 5.77
COc1ccc(CCN(CCC(=O)NO)S(=O)(=O)c2ccc(-c3nnn[nH]3)cc2)cc1 [compound 1496]	0.25	
CS(=O)(=O)c1ccc(S(=O)(=O)N(CCC(=O)NO)CCc2cccs2)cc1 [compound 1463]	0.7	
O=C(CCN(CCc1ccccc1)S(=O)(=O)c1ccc([N+](=O)[O-])cc1)NO [compound 1268]	3.03	
COc1ccc(S(=O)(=O)N(CCC(=O)NO)Cc2ccc(Cl)cc2)cc1 [compound 1237]	3.57	
O=C(CCN(Cc1ccc2c(c1)OCO2)S(=O)(=O)c1ccc(S(=O)(=O)c2ccccc2)s1)NO [compound 1361]	0.88	
COc1ccc(CCN(CCC(=O)NO)S(=O)(=O)c2cccc(N)c2)cc1 [compound 1492]	0.32	
CC(=O)Nc1ccc(S(=O)(=O)N(CCC(=O)NO)Cc2ccc3c(c2)OCO3)cc1 [compound 1357]	0.55	
COc1ccc(S(=O)(=O)N(CCc2ccccc2)CC(=O)NO)cc1 [compound 128]		IC50 [1]: 15.3 µM
N/C(=N\O)c1ccc(S(=O)(=O)N(CCC(=O)NO)CCc2cccs2)cc1 [compound 1409]	0.18	
COc1ccc(S(=O)(=O)N(CCC(=O)NO)c2ccccc2)cc1 [compound 124]		IC50 [1]: 2 µM
N/C(=N\O)c1cccc(S(=O)(=O)N(CCC(=O)NO)Cc2ccc3c(c2)OCO3)c1 [compound 1458]	0.25	
COc1ccccc1CCN(CCC(=O)NO)S(=O)(=O)c1ccc(C(=O)O)cc1 [compound 1405]	1.46	
COc1ccc(S(=O)(=O)N(CCC(=O)NO)Cc2ccccc2)cc1 [compound 121]		IC50 [1]: 9 µM
O=C(CCN(Cc1ccc2c(c1)OCO2)S(=O)(=O)c1ccc(Br)s1)NO [compound 1367]	1.47	
O=C(CCN(CCc1cccs1)S(=O)(=O)c1cccs1)NO [compound 1425]	1.32	
COc1ccc(S(=O)(=O)N(CCC(=O)NO)C2C3CC4CC(C3)CC2C4)cc1 (stereo not shown) [compound 1335]	36.5	

Second part, led by results:

IC50 [2] [µM]	Structure (SMILES)	also measured
1.7	CCCCOc1ccc(S(=O)(=O)N(CCC(=O)NO)Cc2ccc3c(c2)OCO3)cc1 [compound 1372]	
0.35	CS(=O)(=O)c1ccc(S(=O)(=O)N(CCC(=O)NO)Cc2ccc3c(c2)OCO3)cc1 [compound 1464]	
22.1	COc1ccc(CCN(CC(=O)NO)S(=O)(=O)c2ccc(OC)cc2)cc1 [compound 204]	
1.21	O=C(CCN(CCc1ccccc1)S(=O)(=O)c1cccs1)NO [compound 1270]	
1.67	O=C(CCN(CCc1cccs1)S(=O)(=O)c1ccc(Br)s1)NO [compound 1417]	
3.5	O=C(CCN(CCc1cccs1)S(=O)(=O)Cc1ccccc1)NO [compound 1414]	
0.23	N/C(=N\O)c1ccc(S(=O)(=O)N(CCC(=O)NO)Cc2ccc3c(c2)OCO3)cc1 [compound 1369]	
2.43	COc1ccc(S(=O)(=O)N(CCC(=O)NO)CCc2ccc(Cl)cc2)cc1 [compound 1300]	
0.91	O=C(CCN(Cc1ccc2c(c1)OCO2)S(=O)(=O)c1cccs1)NO [compound 1371]	
0.39	CC(=O)Nc1ccc(S(=O)(=O)N(CCC(=O)NO)CCc2cccs2)cc1 [compound 1411]	
3.95	O=C(CCN(CCc1cccs1)S(=O)(=O)c1ccc(S(=O)(=O)c2ccccc2)s1)NO [compound 1419]	
0.82	CCCCOc1ccc(S(=O)(=O)N(CCC(=O)NO)CCc2cccs2)cc1 [compound 1416]	
